Values quoted from earlier work in patent US5792763A, “Serotonin 5-HT1F agonists” (Eli Lilly and Company, priority 1997, dated 1998).

Assays:
[1] = background section
[2] = tested on: cephalic vascular smooth muscle; conditions: background section
[3] = background section; remark: listed apart in the source
[4] = tested on: neurogenic inflammation; conditions: background section

CNS(=O)(=O)Cc1ccc2[nH]cc(CCN(C)C)c2c1 [sumatriptan]
crossing of the blood-brain barrier [1]: does not cross the blood-brain barrier | contraction of cephalic vascular smooth muscle [2]: contract cephalic vascular smooth muscle | effectiveness in the treatment of migraine [3]: effective in the treatment of migraine | blockade of neurogenic inflammation [4]: blocked
